Values joined by “and” are separate entries in the source; they are usually repeats but may differ in a detail not shown here. Identical values can stand only once.
System: Coronavirus (hCoV-229E)
Assay: Inactivation efficiency against coronavirus hCoV-229E strain (residual TCID50 on Huh-7 cells)
Type: cell-based
Details: for CPE test (virus replication in cell wells): wells 1-10; for average inactivation efficiency against virus: three experiments

O=C(O[C@@H]1Cc2c(O)cc(O)cc2O[C@@H]1c1cc(O)c(O)c(O)c1)c1cc(O)c(O)c(O)c1 [EGCG, Epigallocatechin gallate]
CPE test (virus replication in cell wells) (0.2 mM EGCG + hCoV-229E virus, co-incubated 1 minute, first experiment, dilution factor 10^1): +
CPE test (virus replication in cell wells) (0.2 mM EGCG + hCoV-229E virus, co-incubated 1 minute, first experiment, dilution factor 10^2): +
CPE test (virus replication in cell wells) (0.2 mM EGCG + hCoV-229E virus, co-incubated 1 minute, first experiment, dilution factor 10^3): +
CPE test (virus replication in cell wells) (0.2 mM EGCG + hCoV-229E virus, co-incubated 1 minute, first experiment, dilution factor 10^4): +
CPE test (virus replication in cell wells) (0.2 mM EGCG + hCoV-229E virus, co-incubated 1 minute, first experiment, dilution factor 10^5): − and +
CPE test (virus replication in cell wells) (0.2 mM EGCG + hCoV-229E virus, co-incubated 1 minute, first experiment, dilution factor 10^6): −
CPE test (virus replication in cell wells) (0.2 mM EGCG + hCoV-229E virus, co-incubated 1 minute, first experiment, dilution factor 10^7): −
CPE test (virus replication in cell wells) (0.2 mM EGCG + hCoV-229E virus, co-incubated 1 minute, first experiment, dilution factor 10^8): −
CPE test (virus replication in the cell wells) (0.2 mM EGCG + virus, co-incubated 5 minute, first experiment, dilution factor 10^1, wells 1-10): +
CPE test (virus replication in the cell wells) (0.2 mM EGCG + virus, co-incubated 5 minute, first experiment, dilution factor 10^2, wells 1-10): +
CPE test (virus replication in the cell wells) (0.2 mM EGCG + virus, co-incubated 5 minute, first experiment, dilution factor 10^3, wells 1-10): +
CPE test (virus replication in the cell wells) (0.2 mM EGCG + virus, co-incubated 5 minute, first experiment, dilution factor 10^4, wells 1-10): +
CPE test (virus replication in the cell wells) (0.2 mM EGCG + virus, co-incubated 5 minute, first experiment, dilution factor 10^5, wells 1-10): + and −
CPE test (virus replication in the cell wells) (0.2 mM EGCG + virus, co-incubated 5 minute, first experiment, dilution factor 10^6, wells 1-10): + and −
CPE test (virus replication in the cell wells) (0.2 mM EGCG + virus, co-incubated 5 minute, first experiment, dilution factor 10^7, wells 1-10): −
CPE test (virus replication in the cell wells) (0.2 mM EGCG + virus, co-incubated 5 minute, first experiment, dilution factor 10^8, wells 1-10): −
CPE test (virus replication in the cell wells) (0.2 mM EGCG + virus, co-incubated 5 minute, second experiment, dilution factor 10^1, wells 1-10): +
CPE test (virus replication in the cell wells) (0.2 mM EGCG + virus, co-incubated 5 minute, second experiment, dilution factor 10^2, wells 1-10): +
CPE test (virus replication in the cell wells) (0.2 mM EGCG + virus, co-incubated 5 minute, second experiment, dilution factor 10^3, wells 1-10): +
CPE test (virus replication in the cell wells) (0.2 mM EGCG + virus, co-incubated 5 minute, second experiment, dilution factor 10^4, wells 1-10): +
CPE test (virus replication in the cell wells) (0.2 mM EGCG + virus, co-incubated 5 minute, second experiment, dilution factor 10^5, wells 1-10): + and −
CPE test (virus replication in the cell wells) (0.2 mM EGCG + virus, co-incubated 5 minute, second experiment, dilution factor 10^6, wells 1-10): − and +
CPE test (virus replication in the cell wells) (0.2 mM EGCG + virus, co-incubated 5 minute, second experiment, dilution factor 10^7, wells 1-10): −
CPE test (virus replication in the cell wells) (0.2 mM EGCG + virus, co-incubated 5 minute, second experiment, dilution factor 10^8, wells 1-10): −
CPE test (virus replication in the cell wells) (0.2 mM EGCG + virus, co-incubated 5 minutes, dilution factor 10^1, wells 1-10, third experiment): +
CPE test (virus replication in the cell wells) (0.2 mM EGCG + virus, co-incubated 5 minutes, dilution factor 10^2, wells 1-10, third experiment): +
CPE test (virus replication in the cell wells) (0.2 mM EGCG + virus, co-incubated 5 minutes, dilution factor 10^3, wells 1-10, third experiment): +
CPE test (virus replication in the cell wells) (0.2 mM EGCG + virus, co-incubated 5 minutes, dilution factor 10^4, wells 1-10, third experiment): + and −
CPE test (virus replication in the cell wells) (0.2 mM EGCG + virus, co-incubated 5 minutes, dilution factor 10^5, wells 1-10, third experiment): +
CPE test (virus replication in the cell wells) (0.2 mM EGCG + virus, co-incubated 5 minutes, dilution factor 10^6, wells 1-10, third experiment): − and +
CPE test (virus replication in the cell wells) (0.2 mM EGCG + virus, co-incubated 5 minutes, dilution factor 10^7, wells 1-10, third experiment): −
CPE test (virus replication in the cell wells) (0.2 mM EGCG + virus, co-incubated 5 minutes, dilution factor 10^8, wells 1-10, third experiment): −
CPE test (virus replication in cell wells) (0.2 mM EGCG + virus, hCoV-229E co-incubated 1 minute, second experiment, dilution factor 10^1): +
CPE test (virus replication in cell wells) (0.2 mM EGCG + virus, hCoV-229E co-incubated 1 minute, second experiment, dilution factor 10^2): +
CPE test (virus replication in cell wells) (0.2 mM EGCG + virus, hCoV-229E co-incubated 1 minute, second experiment, dilution factor 10^3): +
CPE test (virus replication in cell wells) (0.2 mM EGCG + virus, hCoV-229E co-incubated 1 minute, second experiment, dilution factor 10^4): +
CPE test (virus replication in cell wells) (0.2 mM EGCG + virus, hCoV-229E co-incubated 1 minute, second experiment, dilution factor 10^5): + and −
CPE test (virus replication in cell wells) (0.2 mM EGCG + virus, hCoV-229E co-incubated 1 minute, second experiment, dilution factor 10^6): −
CPE test (virus replication in cell wells) (0.2 mM EGCG + virus, hCoV-229E co-incubated 1 minute, second experiment, dilution factor 10^7): −
CPE test (virus replication in cell wells) (0.2 mM EGCG + virus, hCoV-229E co-incubated 1 minute, second experiment, dilution factor 10^8): −
CPE test (virus replication in cell wells) (0.2 mM EGCG + virus, hCoV-229E co-incubated 1 minute, third experiment, dilution factor 10^1): +
CPE test (virus replication in cell wells) (0.2 mM EGCG + virus, hCoV-229E co-incubated 1 minute, third experiment, dilution factor 10^2): +
CPE test (virus replication in cell wells) (0.2 mM EGCG + virus, hCoV-229E co-incubated 1 minute, third experiment, dilution factor 10^3): +
CPE test (virus replication in cell wells) (0.2 mM EGCG + virus, hCoV-229E co-incubated 1 minute, third experiment, dilution factor 10^4): +
CPE test (virus replication in cell wells) (0.2 mM EGCG + virus, hCoV-229E co-incubated 1 minute, third experiment, dilution factor 10^5): − and +
CPE test (virus replication in cell wells) (0.2 mM EGCG + virus, hCoV-229E co-incubated 1 minute, third experiment, dilution factor 10^6): + and −
CPE test (virus replication in cell wells) (0.2 mM EGCG + virus, hCoV-229E co-incubated 1 minute, third experiment, dilution factor 10^7): −
CPE test (virus replication in cell wells) (0.2 mM EGCG + virus, hCoV-229E co-incubated 1 minute, third experiment, dilution factor 10^8): −
inactivation efficiency against the virus (0.2 mM EGCG, hCoV-229E virus, 1 minute, single experiment): 36.90% and 20.57%
average inactivation efficiency against virus (0.2 mM EGCG, hCoV-229E virus, 1 minute): 31.46%
average inactivation efficiency against virus (0.2 mM EGCG, hCoV-229E virus, 5 minutes): 13.71%
CPE test (virus replication in cell wells) (1 mM EGCG + hCoV-229E virus, co-incubated 1 minute, first experiment, dilution factor 10^1): +
CPE test (virus replication in cell wells) (1 mM EGCG + hCoV-229E virus, co-incubated 1 minute, first experiment, dilution factor 10^2): +
CPE test (virus replication in cell wells) (1 mM EGCG + hCoV-229E virus, co-incubated 1 minute, first experiment, dilution factor 10^3): +
CPE test (virus replication in cell wells) (1 mM EGCG + hCoV-229E virus, co-incubated 1 minute, first experiment, dilution factor 10^4): +
CPE test (virus replication in cell wells) (1 mM EGCG + hCoV-229E virus, co-incubated 1 minute, first experiment, dilution factor 10^5): + and −
CPE test (virus replication in cell wells) (1 mM EGCG + hCoV-229E virus, co-incubated 1 minute, first experiment, dilution factor 10^6): −
CPE test (virus replication in cell wells) (1 mM EGCG + hCoV-229E virus, co-incubated 1 minute, first experiment, dilution factor 10^7): −
CPE test (virus replication in cell wells) (1 mM EGCG + hCoV-229E virus, co-incubated 1 minute, first experiment, dilution factor 10^8): −
CPE test (virus replication in the cell wells) (1 mM EGCG + virus, co-incubated 5 minute, first experiment, dilution factor 10^1, wells 1-10): +
CPE test (virus replication in the cell wells) (1 mM EGCG + virus, co-incubated 5 minute, first experiment, dilution factor 10^2, wells 1-10): +
CPE test (virus replication in the cell wells) (1 mM EGCG + virus, co-incubated 5 minute, first experiment, dilution factor 10^3, wells 1-10): +
CPE test (virus replication in the cell wells) (1 mM EGCG + virus, co-incubated 5 minute, first experiment, dilution factor 10^4, wells 1-10): +
CPE test (virus replication in the cell wells) (1 mM EGCG + virus, co-incubated 5 minute, first experiment, dilution factor 10^5, wells 1-10): − and +
CPE test (virus replication in the cell wells) (1 mM EGCG + virus, co-incubated 5 minute, first experiment, dilution factor 10^6, wells 1-10): − and +
CPE test (virus replication in the cell wells) (1 mM EGCG + virus, co-incubated 5 minute, first experiment, dilution factor 10^7, wells 1-10): −
CPE test (virus replication in the cell wells) (1 mM EGCG + virus, co-incubated 5 minute, first experiment, dilution factor 10^8, wells 1-10): −
CPE test (virus replication in the cell wells) (1 mM EGCG + virus, co-incubated 5 minute, second experiment, dilution factor 10^1, wells 1-10): +
CPE test (virus replication in the cell wells) (1 mM EGCG + virus, co-incubated 5 minute, second experiment, dilution factor 10^2, wells 1-10): +
CPE test (virus replication in the cell wells) (1 mM EGCG + virus, co-incubated 5 minute, second experiment, dilution factor 10^3, wells 1-10): +
CPE test (virus replication in the cell wells) (1 mM EGCG + virus, co-incubated 5 minute, second experiment, dilution factor 10^4, wells 1-10): +
CPE test (virus replication in the cell wells) (1 mM EGCG + virus, co-incubated 5 minute, second experiment, dilution factor 10^5, wells 1-10): + and −
CPE test (virus replication in the cell wells) (1 mM EGCG + virus, co-incubated 5 minute, second experiment, dilution factor 10^6, wells 1-10): −
CPE test (virus replication in the cell wells) (1 mM EGCG + virus, co-incubated 5 minute, second experiment, dilution factor 10^7, wells 1-10): −

From US20240238242A1, “EGCG buccal tablet and use thereof” (priority 2023, published 2024)
